pIC50: −log10 of the molar value.

T1 sequence (Q8N884 161-522): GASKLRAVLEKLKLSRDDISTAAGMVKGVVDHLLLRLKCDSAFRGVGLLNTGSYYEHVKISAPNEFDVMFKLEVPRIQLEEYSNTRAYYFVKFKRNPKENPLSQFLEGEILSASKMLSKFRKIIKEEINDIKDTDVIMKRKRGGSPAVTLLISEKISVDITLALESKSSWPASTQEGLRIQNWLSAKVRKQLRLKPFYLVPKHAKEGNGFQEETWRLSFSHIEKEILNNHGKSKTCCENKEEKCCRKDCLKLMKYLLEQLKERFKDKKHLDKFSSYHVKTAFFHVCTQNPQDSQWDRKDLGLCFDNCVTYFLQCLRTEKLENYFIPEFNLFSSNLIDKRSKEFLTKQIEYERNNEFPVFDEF

This experiment addresses T1, human cGAS (residues 161-522) (Homo sapiens, UniProt Q8N884).
T1 construct: Recombinantly expressed purified human cGAS (residues 161-522) was used at 25 nM; made in house
Kind of experiment: Malachite Green assay to measure cGAS activity (coupled enzymatic assay, phosphate detection). The experiment is classed as biochemical. The note with it: recombinant human cGAS 25 nM; 80 μM ATP, 80 μM GTP, 100 nM ISD; 4 hour at RT. On the procedure: Malachite Green Assay to Measure cGAS Activity
Compounds were tested for cGAS inhibition in a coupled enzymatic assay based on Phosphate detection by Malachite Green. Final assay conditions were 20 mM TRIS pH 7.5 (Applichem), 5 mM MgCl2 (Sigma) and 0.01% BSA (Sigma) supplemented with 80 μM ATP (Sigma), 80 μM GTP (Sigma) and 100 nM Interferon Stimulating DNA (ISD) (Microsynth). Recombinantly expressed purified human cGAS (residues 161-522) was used at 25 nM.
All compounds were prepared as 10 mM stock solutions in DMSO and a 16 pt dilution series in DMSO with a dilution factor of 2.5 was prepared. 1 μL of DMSO dilution series was transferred to 32.3 μL reaction buffer, mixed by pipetting up/down, spun for 1 minute at 3000 rpm and was visually inspected for precipitation. 5 μL of 3-fold enzyme stock solution were transferred to an empty 384-well Black/Clear Flat Bottom Polystyrene NBS (Corning) rows 3-24. Rows 1-2 were filled with assay buffer. Plates were spun 10 seconds at 1000 rpm (164×g). 5 μL of compound intermediate dilution was added and mixed by pipetting up/down to rows 3-24. Rows 1-2 were filled with 3.1% DMSO assay buffer. Plates were spun 10 seconds at 1000 rpm (164×g). 5 μL 3-fold Nucleotide/DNA mix was added to all wells to start the reaction. Plates were spun 10 seconds at 1000 rpm (164×g) and incubated for 4 hour at room temperature (RT) in the dark. 5 μL 4 U/mL PPase (Sigma) were added to all wells. Plates spun 10 seconds at 1000 rpm (164×g). 10 μL BioMol green Solution (Enzo Life Sciences) was added to all wells. Plates spun 10 seconds at 1000 rpm (164×g) and incubated 30 minutes at RT in the dark. Absorbance data was collected 620 nm on an EnVision Multilable Reader (Perkin Elmer) and the following measurement settings were used: excitation filter photometric was 620 nm; excitation from the top; measurement height was 1 mm; number of flashes was 30; number of flashes integrated was 1.
All plates are checked for abnormalities and outliers in the Blank Control (no protein, row 1) and the Neutral Control (no compound, row 2) are excluded using the 3*SD rule. Data was normalized to 0 and 100% by Blank and Neutral Control and each curve was fitted and judged using the 4 parameter logistic equation to determine the IC50 for cGAS inhibition.
Table 1 provides IC50 values (04) for cGAS inhibition obtained for particular examples of the present invention as measured by the above-described assay.
With `Cc1ccc(-c2ccc3c(c2)C(=O)NS(=O)(=O)N3)c(Cl)c1` [Example 1, 6-(2-Chloro-4-methylphenyl)-1H-benzo[c][1,2,6]thiadiazin-4(3H)-one 2,2-dioxide], the pIC50 (usually the negative decadic logarithm of the IC50, by convention in mol/L) was 5.53. The result for `Cc1ccc(-c2ccc3c(c2)C(=O)N(CCN2CCOCC2)S(=O)(=O)N3)c(Cl)c1` [Example 5, 6-(2-Chloro-4-methylphenyl)-3-(2-morpholinoethyl)-1H-benzo[c][1,2,6]thiadiazin-4(3H)-one 2,2-dioxide] reads 4.75. The result for `Cc1ccc(-c2ccc3c(c2)C(=O)NS(=O)(=O)N3Cc2ccccc2)c(Cl)c1` [Example 6, 1-Benzyl-6-(2-chloro-4-methylphenyl)-1H-benzo[c][1,2,6]thiadiazin-4(3H)-one 2,2-dioxide] reads 4.70; that for `Cc1ccc(-c2ccc3c(c2)C(=O)NS(=O)(=O)N3Cc2ccncc2)c(Cl)c1` [Example 3, 6-(2-Chloro-4-methylphenyl)-1-(pyridin-4-ylmethyl)-1H-benzo[c][1,2,6]thiadiazin-4(3H)-one 2,2-dioxide], 4.85; that for `Cc1ccc(-c2ccc3c(c2)C(=O)NS(=O)(=O)N3CCc2ccccc2)c(Cl)c1` [Example 4, 6-(2-Chloro-4-methylphenyl)-1-phenethyl-1H-benzo[c][1,2,6]thiadiazin-4(3H)-one 2,2-dioxide], 4.76. For the compound `Cc1ccc(-c2ccc3c(c2)C(=O)NS(=O)(=O)N3CCN2CCOCC2)c(Cl)c1` [Example 2, 6-(2-Chloro-4-methylphenyl)-1-(2-morpholinoethyl)-1H-benzo[c][1,2,6]thiadiazin-4(3H)-one 2,2-dioxide], the pIC50 is 5.02.

The values above are taken from patent US20230219913A1, “Sulfamoylamide Derivatives” (Hoffmann-La Roche Inc., priority 2020, published 2023).
